Values quoted from earlier work in paper PMC9091901 (Journal of Pharmaceutical Analysis, 2021).

Conditions: octanol-water partition coefficient; ref DrugBank database

Row | Compound | log P
1 | NCC[C@H](O)C(=O)N[C@@H]1C[C@H](N)[C@@H](O[C@H]2O[C@H](CN)[C@@H](O)[C@H](O)[C@H]2O)[C@H](O)[C@H]1O[C@H]1O[C@H](CO)[C@@H](O)[C@H](N)[C@H]1O [Amikacin] | −3.20
2 | CC(C)(C)c1cc(O)ccc1O [Tert-butylhydroquinone] | 2.91
3 | CC(C)(N)Cc1ccc(Cl)cc1 [Chlorphentermine] | 2.60
4 | O=C(O)c1cccc(C(=O)O)n1 [2,6-pyridinedicarboxylic acid] | −0.44
5 | O=c1cc(O)c2ccccc2o1 [4-hydroxycoumarin] | 1.01
6 | CC(COc1ccccc1)N(CCCl)Cc1ccccc1 (centres unmarked) [Phenoxybenzamine] | 4.70
7 | CCN(CC)Cc1cc(Nc2ccnc3cc(Cl)ccc23)ccc1O [Amodiaquine] | 3.70
8 | O=c1[nH]c2ccccc2n1CCCN1CCC(n2c(=O)[nH]c3cc(Cl)ccc32)CC1 [Domperidone] | 3.90
9 | CN1C(=O)NC(=O)C(C)(C2=CCCCC2)C1=O (centres unmarked) [Hexobarbital] | 1.98
10 | CCOC(=O)C(C)(C)Oc1ccc(Cl)cc1 [Clofibrate] | 3.30
11 | CC(C)NCC(O)c1ccc(NS(C)(=O)=O)cc1 (centres unmarked) [Sotalol] | −0.40
12 | CCOC(=O)C1=C(C)NC(C)=C(C(=O)OC)C1c1cccc([N+](=O)[O-])c1 (centres unmarked) [Nitrendipine] | 2.88
13 | CCN(CC)CCOC(=O)c1ccc(N)cc1 [Procaine] | 2.14
14 | CC1Cc2ccccc2N1NC(=O)c1ccc(Cl)c(S(N)(=O)=O)c1 (centres unmarked) [Indapamide] | 2.52
